Measurements: patent US7335756B2, “Retinoic acid metabolizing cytochrome P450” (Cytochroma Inc., priority 2001, dated 2008)

Assays:
[1] = molecular target: T1, P450RAI-3 (Homo sapiens, UniProt Q6V0L0, F447L); assay: ATRA / 9-cis-RA metabolism in pcDNA-P450RAI-3 transfected Cos-1 cells (Bligh-Dyer, HPLC); assay type: cell-based; parameters: expressed in transfected cells; host or cells: COS-1 (transient, pcDNA-P450RAI-3, Fugene); details: 2 nM radio-labeled substrate, 3 hours
T1 sequence (Q6V0L0 1-522 F447L): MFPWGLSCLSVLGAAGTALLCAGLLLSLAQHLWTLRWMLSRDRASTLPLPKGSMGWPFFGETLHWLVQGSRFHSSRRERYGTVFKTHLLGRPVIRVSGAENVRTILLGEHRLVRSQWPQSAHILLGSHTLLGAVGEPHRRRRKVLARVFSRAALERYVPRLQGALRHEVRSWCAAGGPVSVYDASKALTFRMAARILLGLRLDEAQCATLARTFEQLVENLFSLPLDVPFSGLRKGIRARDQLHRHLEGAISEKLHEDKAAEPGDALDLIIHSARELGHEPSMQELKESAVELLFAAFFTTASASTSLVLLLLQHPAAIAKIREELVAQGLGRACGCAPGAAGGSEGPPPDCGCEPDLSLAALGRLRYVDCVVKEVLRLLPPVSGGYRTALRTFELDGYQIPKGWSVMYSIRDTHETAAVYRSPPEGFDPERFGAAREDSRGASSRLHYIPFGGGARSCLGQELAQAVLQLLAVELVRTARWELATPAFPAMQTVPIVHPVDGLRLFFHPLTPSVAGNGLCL
Protocol: Mammalian Cos-1 cells were transfected with either pcDNA-P450RAI-3 or pcDNA-control vector using Fugene™ (Roche diagnostic) according to the manufacturers directions. After 48 hours post-tranfection, cells were washed with PBS and assessed for ATRA-metabolism activity as described Briefly, transfected cells were incubated with radio-labeled ^3[H]-ATRA (18000 cpm, 2 nM) for 3 hours. Organic and Water-soluble metabolites were extracted using Bligh-Dyer procedure and radioactivity counted (FIG. 10).
HPLC analysis of the organic metabolites: the Bligh-Dyer organic button-layer was dried out and residues were suspended in HPLC solvent and then analyzed by HPLC as described in [White et al, PNAS, vol 97, pg 6403-6408], FIG. 11.
Mammalian Cos-1 cells were transfected with either pcDNA-P450RAI-3 or pcDNA-control vector according to the manufacturers directions using Fugene (Roche). After 48 hours post-tranfection, cells were washed with PBS and assessed for 9-cis-RA-metabolism activity as described using Bligh-Dyer procedure. Briefly, transfected cells were incubated with radio-labeled ^3[H]-9-cis-RA (38000 cpm, 2 nM) for 3 hours. Organic and Water-soluble metabolites were extracted using Bligh-Dyer procedure and radioactivity counted, FIG. 19.

[2] = molecular target: T1, P450RAI-3; assay: [3H]-RA-metabolism inhibition (substrate competition) in P450RAI-3 stable transfected Hela cells; assay type: cell-based; parameters: expressed in transfected cells; details: 2 nM [3H]-RA, read-out: ID50, competition for P450RAI-3 [3H]-RA metabolism
Protocol: The purpose of these experiments is to determine the specific substrates for P450RAI-3. […] The RA metabolism reaction was started by the addition of 50 ul of [^3H]-RA solution (20000 cpm, 2 nM final concentration). Cells were incubated for 3 hours in a humidified CO2 incubator at 37 degrees Celsius. The reaction was stopped by the addition of 5 ul of 10% acetic acid. Organic and aqueous soluble radio-labelled metabolites were extracted using the Bligh-Dyer procedure.

[3] = molecular target: T1, P450RAI-3; assay: [3H]-RA-metabolism inhibition in Sf9-Bac-P450RAI-3 insect microsomes; assay type: biochemical; details: 2 nM [3H]-RA, NADPH, 1 hour, read-out: ID50 (nM) Sf9-P450RAI-3
Protocol: Microsomes from P450RAI-3 and CYP26B infected Sf-9 cells were made as follows: exponentially growing cells were harvested, washed with ice-cold PBS, counted then homogenized and sonicated in lysis buffer containing protease inhibitors cocktail (10^8 cells par 5 ml lyses buffer). Since P450RAI-3 is a microsomal cytochrome, it preferably uses NADPH cytochromic P450 reductase and a flavoprotein for activity. The microsomes were isolated by differential centrifugations (10 min at 800×g, than 10 min at 10,000×g and finally the postmitichondirial supernatant was centrifuged at 100,000×g for 60 min using ultracentrifuge (Beckman). The microsomal pellet was isolated and homogenized gently in the storage buffer containing protease inhibitors cocktail. Protein concentration in the microsomal preparation was determined using a […] reaction assay kit with BSA as standards (Pierce). The absorbance at 562 nm of standards (BSA at 1, 0.5, 0.25, 0.125, and 0.0625 mg/ml) and 3 dilutions of microsomes samples (⅕, 1/10 and 1/20) was determined using an automatic microplate reader (μQuant, BioTek instruments Inc.). The protein concentration directly calculated by the software (KCJunior). […] Microsomes were assessed for P450 content by carbon monoxide assay and total P450 content was determined at 3 nmol/ml. […]

[4] = molecular target: T1, P450RAI-3; assay: LC/MS analysis of ATRA and 9-cis-RA metabolism in Hela-P450RAI-3 stable cells; details: 5 hours
Protocol: After 5 hours incubation at 37° C., cells were acidified with acetic acid and total retinoids were extracted using Ethyl acetate method. The organic upper layer was pooled and evaporated in speed-vacuum, and dried residues were dissolved in HPLC mobile solvent and analyzed in LC/MS.
The HPLC system consisted of a waters alliance 2690 separations module. Chromatography was obtained on an Eclipse X DB-C18 reverse phase column (5 um, 2.1×150 mm from HP). A gradient elution program was used using acetonitrile, water and 10% acetic acid. The flow was held at 0.2 ml/min.
Mass Spectrometry condition used for this work consisted of a Micro-mass Quatro Ultima Tandem triple quadruple mass spectrometer equipped with electrospray interface (ESI) and operated in a negative mode.

Structure (SMILES): CC1=C(/C=C/C(C)=C/C=C/C(C)=C/C(=O)O)C(C)(C)CCC1 [ATRA, all-trans-retinoic-acid]
- metabolism by P450RAI-3 [1]: efficiently metabolize ATRA to polar metabolites
- IC50 [2]: 300 nM
- IC50 [3]: 20 nM
- metabolites formed by P450RAI-3 [4]: hydroxy and oxo-metabolites
